Where a SMILES comes first, the peptide text is derived from it. Where no end group is shown, it is not given here. [ ]: non-standard residue; d: D form. Ahx = NCCCCCC(=O)O
Legend:
HEK-Bcan cells [1] = test: Flow cytometry blocking study with 50× molar excess of unlabeled peptide; format: cell-based, human; settings: fluorescein-conjugated peptide 1 μM
Experimental: (§1) Cells were washed once with PBS and then, treated with 1 mL of 2.5 mM EDTA to dissociate the cells. The EDTA was removed by centrifugation, and PBS supplemented with 10% FBS was added to create a single-cell suspension. All peptide stocks were dissolved in DMSO, and stored at −20° C. in the dark. Cells were incubated with each peptide (at the desired final concentration, between 1-10 μM) for 3 hrs at 37° C. in the dark under constant rotation. After incubation, cells were washed 3× with PBS with 10% FBS (by centrifugation at 7000 rpm for 3 mins each). Then, cells were resuspended in 3.7% formaldehyde for fixation, and finally washed once with PBS. Cells were evaluated for peptide uptake (mean fluorescence intensity) by flow cytometry (10,000-20,000 events).
For blocking studies, cells were dissociated as described above and resuspended in cold PBS with 10% FBS. Cells were then incubated with a 50× molar excess of unlabeled peptide for 10 mins on ice, before adding the corresponding FITC-labeled peptide at a final concentration of 1 μM and incubated for 1.5 hrs on ice. Cells were then washed with cold PBS with 10% FBS, fixed and analyzed by flow cytometry.

[2] = biological target: T1, recombinant BΔg protein (deglycosylated brevican) (Homo sapiens, UniProt Q96GW7); test: Octet steady state binding affinity to recombinant BΔg
T1 construct: purchased R&D Systems 4009-BC-050
T1 sequence (Q96GW7 23-911): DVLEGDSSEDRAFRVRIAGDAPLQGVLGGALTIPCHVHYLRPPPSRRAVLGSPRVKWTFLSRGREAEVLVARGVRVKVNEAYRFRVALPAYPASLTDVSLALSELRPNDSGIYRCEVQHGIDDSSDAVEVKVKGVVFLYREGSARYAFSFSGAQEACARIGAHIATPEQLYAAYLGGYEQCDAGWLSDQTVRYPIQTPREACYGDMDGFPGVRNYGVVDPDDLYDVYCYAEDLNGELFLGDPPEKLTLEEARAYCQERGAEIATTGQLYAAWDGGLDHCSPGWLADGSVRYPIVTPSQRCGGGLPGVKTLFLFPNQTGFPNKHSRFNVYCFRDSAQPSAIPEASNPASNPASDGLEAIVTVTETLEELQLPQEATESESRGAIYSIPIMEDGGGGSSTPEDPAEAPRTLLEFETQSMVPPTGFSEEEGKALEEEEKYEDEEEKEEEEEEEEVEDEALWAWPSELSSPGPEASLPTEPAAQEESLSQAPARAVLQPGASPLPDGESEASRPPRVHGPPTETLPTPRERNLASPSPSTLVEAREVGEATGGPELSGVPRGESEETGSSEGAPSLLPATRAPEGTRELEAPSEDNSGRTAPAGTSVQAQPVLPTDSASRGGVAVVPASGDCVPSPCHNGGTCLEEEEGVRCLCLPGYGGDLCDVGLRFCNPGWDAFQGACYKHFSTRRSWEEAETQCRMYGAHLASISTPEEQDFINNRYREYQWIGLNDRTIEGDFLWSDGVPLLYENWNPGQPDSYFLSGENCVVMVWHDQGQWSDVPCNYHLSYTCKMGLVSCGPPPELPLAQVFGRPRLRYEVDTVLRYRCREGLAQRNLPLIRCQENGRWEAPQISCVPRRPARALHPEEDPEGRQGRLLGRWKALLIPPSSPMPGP
Experimental: A ForteBio OctetRed384 instrument was used to study the binding kinetics of each peptide to recombinant human brevican (re-suspended in PBS and 0.1 mM EDTA, pH 6.8). The brevican protein was deglycosylated prior to experimental use in water+0.05% tween, PI, sialidase, 0-glycosidase, N-glycosidase in sodium acetate [200 mM], NaCl [250 mM], Tris-HCl [200 mM], pH 7.5.) in the presence of protease inhibitor overnight at 4° C. (this entire composition will be referred to as ‘de-glycosylation buffer’). […] The final volume for all the solutions was 80 μl/well. Assays were performed at 30° C. in solid black 384-well plates (Geiger Bio-One). Prior to beginning, Ni-NTA biosensors were soaked for 10 min in working buffer. Before loading the protein onto each biosensor, a baseline was established in working buffer for 60 s. Deglycosylated brevican (50 μg/ml BΔg; His-tagged) was loaded on the surface of each biosensors for 180 s. […] Reference biosensors were also included in the plate as internal controls, where biosensors were exposed to the ‘de-glycosylation buffer’ lacking brevican protein during the loading step. A 60 s biosensor washing step was applied. Then, biosensors were exposed to the analyte (peptide) in working buffer (ranging between 0-10 μM BTP) for 300 s during the ‘association’ step. Finally, the biosensors were exposed to working buffer (without peptide) during the ‘dissociation’ step for 600 s. Binding affinity of each peptide was assessed through steady state analysis, where the response unit was plotted over peptide concentration. All data was plotted and curves were fitted using the non-linear ‘one-site specific binding’ fit, and the dissociation constant (KD) value was calculated using the GraphPad Prism software.
Binding kinetics analyses were performed using the Octet RED platform (Forte Bio) to measure the binding affinity of BTP-7, 8 and 9 to purified recombinant BΔg protein.

BT188 glioma stem cells = test: Peptide uptake in BT188 (BΔg-high) versus BT145 (BΔg-low) glioma stem cells, fluorescence imaging; format: cell-based, human; settings: fluorescein-labeled peptides, 5 μM
Excerpt: FIGS. 3A-I. Peptide characterization for BΔg specificity in glioma stem cells. (a) Table summary listing the properties of 7 peptides (composed of 8 D-amino acid residues, SEQ ID NOs:3-9, in order of appearance) that were isolated from the OBOC library screen. MW=molecular weight; KD=Kyte-Doolittle scale for amino acid hydropathy (positive scores indicate […]) (Kyte and Doolittle, J. Mol. Biol. 157, 105-132 (1982)). (b) Chemical structure showing the linkage between the peptide and FITC. (c) Western blot analysis showing the level of BΔg and Bcan in human embryo kidney (HEK) cells, and Bcan-overexpressing HEK cells (HEK-Bcan). […] Each group was normalized to a no-blocking (vehicle) control. Statistics were performed using multiple t-tests, and significance was measured in comparison to each vehicle control (p<0.0001). (e) Uptake of fluorescein-labeled BTP-2, 7, 8, 9, and 10 (at 5 μM conc.) in BT188 (BΔg-high) or BT145 (BΔg-low) glioma stem cells (GSCs). Western blot analysis on the top right confirms the BΔg expression level. […] Statistics were performed using the two-way ANOVA and Tukey's Multiple Comparison test. (f) Chemical structure showing the linkage between the peptide and Cy5.5 dye. (g) Western blot analysis showing the expression of BΔg in GBM-6 cells, with negligible BΔg level in astrocytes or neural progenitor cells (NPC). (h) Graph showing the cell uptake ranking of the top 3 peptide candidates, BTP-7, 8 and 9 in GBM-6 cells as determined by flow cytometry analysis with s.d. error bars (5 μM conc.; nevents=20,000 cells; nexperiment=5). Each group is normalized to the control scramble peptide (Scr-8). Statistics were performed using the one-way ANOVA and Tukey's Multiple Comparison test (significance were measured in comparison to the Scr-8 control). (i) Bar graph showing the uptake of BTP-7, 8 and 9 in GBM-6 cells and NPC with 95% confidence interval error bars (1 μM conc.; nevents=20,000 cells). Statistics were performed using the two-way ANOVA and Sidak's Multiple Comparison test.

HEK-Bcan cells [3] = test: Flow cytometry cell uptake, HEK-Bcan versus regular HEK cells; format: cell-based, human; settings: Cy5.5-conjugated peptides, 5 μM
Experimental: as §1

GBM-6 cells = test: Flow cytometry cell uptake in GBM-6 cells; format: cell-based, human; settings: Cy5.5-conjugated peptides; for uptake in GBM-6 cells at 4° C. compared to 37° C.: 5 μM, inhibition of endocytosis
Experimental: as §1

Row | Molecule | uptake in HEK-Bcan cells in the presence of the blocking peptide (HEK-Bcan cells [1]) | Kd [2] | size of the difference in uptake between BT188 and BT145 GSCs (ranking) (BT188 glioma stem cells) | uptake in BT188 GSCs compared with BT145 GSCs (BT188 glioma stem cells) | uptake in HEK-Bcan cells compared with regular HEK cells (HEK-Bcan cells [3]) | uptake in GBM-6 GSCs compared with astrocytes (GBM-6 cells) | uptake in GBM-6 cells at 4° C. compared to 37° C. (GBM-6 cells)
1 | CC[C@@H](C)[C@@H](NC(=O)[C@@H](C)NC(=O)[C@@H](CCCNC(=N)N)NC(=O)[C@@H](CCC(N)=O)NC(=O)[C@@H](CCCNC(=N)N)NC(=O)[C@@H](CCCNC(=N)N)NC(=O)[C@@H](CC(=O)O)NC(=O)[C@@H](C)N)C(N)=O [BTP-9] (H-[dA][dD][dR][dR][dQ][dR][dA][dI]-NH2; N-terminus and C-terminus assumed) | reduced uptake | 1500 nM | largest and most significant difference | greater uptake | – | – | –
2 | BTP-8-Cy5.5 ([dT][dI][dR][dK][dL][dV][dR][dH]-{Ahx-Pra(Cy5.5)-NH2}) | – | – | – | – | significantly higher | significantly higher | significantly reduced
3 | BTP-9-Cy5.5 ([dA][dD][dR][dR][dQ][dR][dA][dI]-{Ahx-Pra(Cy5.5)-NH2}) | – | – | – | – | significantly higher | significantly higher | significantly reduced
4 | BTP-10: BΔg-targeting peptide of 8 D-amino acid residues from OBOC screen; sequence only in FIG. 3A ([dS][dH][dW][dA][dV][dN][dR][dF]; not fully specified) | reduced uptake | – | – | – | – | – | –
